PubChem BioAssay AID248 (DTP/NCI, 2004)
Several values for one entry are separate records, joined by “and”; a condition that tells them apart may be missing. Equal values may be shown once. Toxic doses and inconclusive results are not listed. Cut-off read from the data, not from the text of the source: active = T/C of 150% or more; inactive = T/C below 125%.

System: L1210 leukemia ip in BDF1 mice, survival T/C
Assay: NCI In Vivo Anticancer Drug Screen. Data for tumor model L1210 Leukemia (intraperitoneal) in B6D2F1 (BDF1) mice
Settings: endpoint: mean survival time, higher = longer survival
In short: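 Mice bearing the transplanted tumor received compound or vehicle. Survival of the treated group was divided by that of the vehicle-treated control group to give the ratio.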

[1] = dose: 6.25 mg/kg/injection, schedule: Q01DX009 (ip), vehicle: saline
[2] = dose: 100.0 mg/kg/injection, schedule: Q04DX003 (ip), vehicle: Klucel (hydroxypropylcellulose) (HPC)
[3] = dose: 200.0 mg/kg/injection, schedule: Q04DX003 (ip), vehicle: Klucel (hydroxypropylcellulose) (HPC)
[4] = dose: 100.0 mg/kg/injection, schedule: Q01DX001 (ip), vehicle: saline
[5] = dose: 200.0 mg/kg/injection, schedule: Q01DX001 (ip), vehicle: saline
[6] = dose: 400.0 mg/kg/injection, schedule: Q01DX001 (ip), vehicle: saline
[7] = dose: 50.0 mg/kg/injection, schedule: Q01DX009 (ip), vehicle: saline with Tween-80
[8] = dose: 100.0 mg/kg/injection, schedule: Q01DX009 (ip), vehicle: saline with Tween-80

Measured: T/C

CN(C)c1ccc(-c2cccc[n+]2C)cc1
inactive: dose: 1.56 mg/kg/injection, schedule: Q01DX009 (ip), vehicle: saline 104 % of control | dose: 3.13 mg/kg/injection, schedule: Q01DX009 (ip), vehicle: saline 103 % of control | [1] 104 % of control

O=C(CCCN1CCN(c2ccccn2)CC1)c1ccc(F)cc1
inactive: dose: 12.5 mg/kg/injection, schedule: Q01DX009 (ip), vehicle: Klucel (hydroxypropylcellulose) (HPC) 96 % of control and 106 % of control | dose: 25.0 mg/kg/injection, schedule: Q01DX009 (ip), vehicle: Klucel (hydroxypropylcellulose) (HPC) 97 % of control and 101 % of control and 106 % of control | dose: 25.0 mg/kg/injection, schedule: Q04DX003 (ip), vehicle: Klucel (hydroxypropylcellulose) (HPC) 97 % of control | dose: 50.0 mg/kg/injection, schedule: Q01DX009 (ip), vehicle: Klucel (hydroxypropylcellulose) (HPC) 108 % of control and 109 % of control and 114 % of control | dose: 50.0 mg/kg/injection, schedule: Q04DX003 (ip), vehicle: Klucel (hydroxypropylcellulose) (HPC) 108 % of control | dose: 100.0 mg/kg/injection, schedule: Q01DX009 (ip), vehicle: Klucel (hydroxypropylcellulose) (HPC) 108 % of control and 110 % of control | [2] 103 % of control | dose: 200.0 mg/kg/injection, schedule: Q01DX009 (ip), vehicle: Klucel (hydroxypropylcellulose) (HPC) 105 % of control and 110 % of control | [3] 123 % of control

COc1cc2cc(C(=O)O)sc2cc1OC
inactive: [4] 91 % of control | [5] 91 % of control | [6] 91 % of control

Cc1ccc2nc(Nc3ccc(Cl)cc3)cc(C(O)C3CCCCN3)c2c1 (stereo not given)
inactive: [2] 96 % of control | [3] 92 % of control | dose: 400.0 mg/kg/injection, schedule: Q04DX003 (ip), vehicle: Klucel (hydroxypropylcellulose) (HPC) 97 % of control

CC(/C=C\C1CCCCC1)=C\C=C\C(C)=C\C=N\Nc1ccc([N+](=O)[O-])cc1[N+](=O)[O-]
inactive: dose: 1.56 mg/kg/injection, schedule: Q01DX001 (ip), vehicle: saline with Tween-80 95 % of control | dose: 3.13 mg/kg/injection, schedule: Q01DX001 (ip), vehicle: saline with Tween-80 95 % of control | dose: 6.25 mg/kg/injection, schedule: Q01DX001 (ip), vehicle: saline with Tween-80 95 % of control | dose: 50.0 mg/kg/injection, schedule: Q01DX001 (ip), vehicle: saline with Tween-80 89 % of control

O=Cc1cc(=O)[nH]c(=O)[nH]1
inactive: dose: 50.0 mg/kg/injection, schedule: Q01DX001 (ip), vehicle: saline 109 % of control | [4] 109 % of control | [5] 105 % of control | [6] 97 % of control

Oc1c(Cl)cc(Cl)c2cccnc12
inactive: dose: 12.5 mg/kg/injection, schedule: Q01DX009 (ip), vehicle: saline with Tween-80 92 % of control | dose: 25.0 mg/kg/injection, schedule: Q01DX009 (ip), vehicle: saline with Tween-80 90 % of control | dose: 50.0 mg/kg/injection, schedule: Q01DX001 (ip), vehicle: carboxymethylcellulose (CMC) 98 % of control | [7] 92 % of control | dose: 100.0 mg/kg/injection, schedule: Q01DX001 (ip), vehicle: carboxymethylcellulose (CMC) 91 % of control | [8] 94 % of control

N#Cc1cc(Cl)ccc1Cl
inactive: dose: 100.0 mg/kg/injection, schedule: Q01DX009 (ip), vehicle: gum acacia 100 % of control | dose: 100.0 mg/kg/injection, schedule: Q04DX003 (ip), vehicle: gum acacia 98 % of control | dose: 200.0 mg/kg/injection, schedule: Q01DX009 (ip), vehicle: gum acacia 103 % of control | dose: 200.0 mg/kg/injection, schedule: Q04DX003 (ip), vehicle: gum acacia 95 % of control | dose: 400.0 mg/kg/injection, schedule: Q01DX009 (ip), vehicle: gum acacia 95 % of control | dose: 400.0 mg/kg/injection, schedule: Q04DX003 (ip), vehicle: gum acacia 93 % of control

c1ccc(C[n+]2cccc3ccccc32)cc1
inactive: [1] 100 % of control | dose: 6.25 mg/kg/injection, schedule: Q04DX003 (ip), vehicle: saline 97 % of control | dose: 12.5 mg/kg/injection, schedule: Q01DX009 (ip), vehicle: saline 101 % of control | dose: 12.5 mg/kg/injection, schedule: Q04DX002 (ip), vehicle: saline 98 % of control | dose: 12.5 mg/kg/injection, schedule: Q04DX003 (ip), vehicle: saline 106 % of control | dose: 25.0 mg/kg/injection, schedule: Q01DX009 (ip), vehicle: saline 100 % of control | dose: 25.0 mg/kg/injection, schedule: Q04DX002 (ip), vehicle: saline 102 % of control | dose: 25.0 mg/kg/injection, schedule: Q04DX003 (ip), vehicle: saline 101 % of control | dose: 50.0 mg/kg/injection, schedule: Q04DX002 (ip), vehicle: saline 105 % of control

NC(N)=N/N=C/N/N=C/c1ccccc1O
inactive: dose: 60.0 mg/kg/injection, schedule: Q01DX Z (oral), vehicle: carboxymethylcellulose (CMC) 91 % of control | dose: 120.0 mg/kg/injection, schedule: Q01DX Z (oral), vehicle: carboxymethylcellulose (CMC) 91 % of control | dose: 240.0 mg/kg/injection, schedule: Q01DX Z (oral), vehicle: carboxymethylcellulose (CMC) 100 % of control | dose: 480.0 mg/kg/injection, schedule: Q01DX Z (oral), vehicle: carboxymethylcellulose (CMC) 100 % of control

COC(C)C1(C)NC(=O)NC1=O (stereo not given)
inactive: [4] 114 % of control | [5] 110 % of control | [6] 102 % of control

C[N+](C)(C)CC#N
inactive: dose: 100.0 mg/kg/injection, schedule: Q04DX003 (ip), vehicle: saline 95 % of control | dose: 200.0 mg/kg/injection, schedule: Q04DX003 (ip), vehicle: saline 95 % of control

CCCCCCCCCC(C)CCCC (stereo not given)
inactive: dose: 100.0 mg/kg/injection, schedule: Q01DX001 (ip), vehicle: saline with Tween-80 86 % of control | dose: 200.0 mg/kg/injection, schedule: Q01DX001 (ip), vehicle: saline with Tween-80 96 % of control

N#CCC(=O)NCc1ccco1
inactive: [7] 106 % of control | [8] 103 % of control | dose: 100.0 mg/kg/injection, schedule: Q04DX002 (ip), vehicle: saline with Tween-80 104 % of control | dose: 200.0 mg/kg/injection, schedule: Q04DX002 (ip), vehicle: saline with Tween-80 114 % of control

Cc1nc2ccccc2c(=O)n1C(C)(C)CCl
inactive: dose: 100.0 mg/kg/injection, schedule: Q04DX003 (ip), vehicle: saline with Tween-80 95 % of control | dose: 200.0 mg/kg/injection, schedule: Q04DX003 (ip), vehicle: saline with Tween-80 92 % of control | dose: 400.0 mg/kg/injection, schedule: Q04DX003 (ip), vehicle: saline with Tween-80 95 % of control

N/N=C(\N)c1ccc(NC(=O)c2ccc(C(=O)Nc3ccc(/C(N)=N/N)cc3)cc2)cc1
inactive: dose: 15.0 mg/kg/injection, schedule: Q01DX Z (ip), vehicle: saline 104 % of control | dose: 30.0 mg/kg/injection, schedule: Q01DX Z (ip), vehicle: saline 100 % of control | dose: 60.0 mg/kg/injection, schedule: Q01DX Z (ip), vehicle: saline 103 % of control | dose: 120.0 mg/kg/injection, schedule: Q01DX Z (ip), vehicle: saline 97 % of control

C=CS(=O)(=O)CCN(C)C
inactive: dose: 100.0 mg/kg/injection, schedule: Q04DX002 (ip), vehicle: saline 94 % of control | dose: 200.0 mg/kg/injection, schedule: Q04DX002 (ip), vehicle: saline 90 % of control | dose: 400.0 mg/kg/injection, schedule: Q04DX002 (ip), vehicle: saline 94 % of control

CCP(CC)c1cccc(OC(=O)NC)c1
inactive: dose: 5.0 mg/kg/injection, schedule: Q01DX001 (ip), vehicle: saline 110 % of control | dose: 10.0 mg/kg/injection, schedule: Q01DX001 (ip), vehicle: saline 104 % of control | dose: 20.0 mg/kg/injection, schedule: Q01DX001 (ip), vehicle: saline 107 % of control
